Measurements from US20180099931A1 (AbbVie S.à.r.l., priority 2016, published 2018).
pEC50: −log10 of the molar value. Where two headings read alike, the source gives them in different places.

Target: T1, F508delCFTR (Homo sapiens, UniProt P13569, DEL508-508)
T1 construct: expressed in transfected cells; host or cells: CFBE41o- human lung-derived epithelial cells (CFBE4lo-F508delCFTR-HRP), doxycycline-inducible
Assay: Cell Surface Expression-Horse Radish Peroxidase (CSE-HRP) Assay;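 as to Maximum % activity (with co-corrector): co-corrector and positive control are both the same reference corrector at 2 µM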;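 as to Maximum % activity (without co-corrector): percent of the 2 µM on-plate positive control corrector response above DMSO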
Type: cell-based
Settings: for Maximum % activity (with co-corrector) / Emax: maximum at any tested concentration, normalized to on-plate positive control; for Emax: read-out: Maximum % activity (without co-corrector)

[1] = test compound without co-corrector, read-out: EC50 (without co-corrector)
[2] = with co-corrector (2 μM of 3-[(2R,4R)-4-({[1-(2,2-difluoro-1,3-benzodioxol-5-yl)cyclopropyl]carbonyl}amino)-7-methoxy-3,4-dihydro-2H-chromen-2-yl]benzoic acid), read-out: EC50 (with co-corrector)
[3] = CSE-HRP, test compound without co-corrector, read-out: EC50 (without co-corrector)
[4] = CSE-HRP, with co-corrector (2 μM of 3-[(2R,4R)-4-({[1-(2,2-difluoro-1,3-benzodioxol-5-yl)cyclopropyl]carbonyl}amino)-7-methoxy-3,4-dihydro-2H-chromen-2-yl]benzoic acid), read-out: EC50 (with co-corrector)
[5] = CSE-HRP, with co-corrector (2 μM)
[6] = test compound without co-corrector
[7] = with co-corrector (2 μM of 3-[(2R,4R)-4-({[1-(2,2-difluoro-1,3-benzodioxol-5-yl)cyclopropyl]carbonyl}amino)-7-methoxy-3,4-dihydro-2H-chromen-2-yl]benzoic acid)

T1 sequence (P13569 with tags, fused parts or gaps DEL508-508): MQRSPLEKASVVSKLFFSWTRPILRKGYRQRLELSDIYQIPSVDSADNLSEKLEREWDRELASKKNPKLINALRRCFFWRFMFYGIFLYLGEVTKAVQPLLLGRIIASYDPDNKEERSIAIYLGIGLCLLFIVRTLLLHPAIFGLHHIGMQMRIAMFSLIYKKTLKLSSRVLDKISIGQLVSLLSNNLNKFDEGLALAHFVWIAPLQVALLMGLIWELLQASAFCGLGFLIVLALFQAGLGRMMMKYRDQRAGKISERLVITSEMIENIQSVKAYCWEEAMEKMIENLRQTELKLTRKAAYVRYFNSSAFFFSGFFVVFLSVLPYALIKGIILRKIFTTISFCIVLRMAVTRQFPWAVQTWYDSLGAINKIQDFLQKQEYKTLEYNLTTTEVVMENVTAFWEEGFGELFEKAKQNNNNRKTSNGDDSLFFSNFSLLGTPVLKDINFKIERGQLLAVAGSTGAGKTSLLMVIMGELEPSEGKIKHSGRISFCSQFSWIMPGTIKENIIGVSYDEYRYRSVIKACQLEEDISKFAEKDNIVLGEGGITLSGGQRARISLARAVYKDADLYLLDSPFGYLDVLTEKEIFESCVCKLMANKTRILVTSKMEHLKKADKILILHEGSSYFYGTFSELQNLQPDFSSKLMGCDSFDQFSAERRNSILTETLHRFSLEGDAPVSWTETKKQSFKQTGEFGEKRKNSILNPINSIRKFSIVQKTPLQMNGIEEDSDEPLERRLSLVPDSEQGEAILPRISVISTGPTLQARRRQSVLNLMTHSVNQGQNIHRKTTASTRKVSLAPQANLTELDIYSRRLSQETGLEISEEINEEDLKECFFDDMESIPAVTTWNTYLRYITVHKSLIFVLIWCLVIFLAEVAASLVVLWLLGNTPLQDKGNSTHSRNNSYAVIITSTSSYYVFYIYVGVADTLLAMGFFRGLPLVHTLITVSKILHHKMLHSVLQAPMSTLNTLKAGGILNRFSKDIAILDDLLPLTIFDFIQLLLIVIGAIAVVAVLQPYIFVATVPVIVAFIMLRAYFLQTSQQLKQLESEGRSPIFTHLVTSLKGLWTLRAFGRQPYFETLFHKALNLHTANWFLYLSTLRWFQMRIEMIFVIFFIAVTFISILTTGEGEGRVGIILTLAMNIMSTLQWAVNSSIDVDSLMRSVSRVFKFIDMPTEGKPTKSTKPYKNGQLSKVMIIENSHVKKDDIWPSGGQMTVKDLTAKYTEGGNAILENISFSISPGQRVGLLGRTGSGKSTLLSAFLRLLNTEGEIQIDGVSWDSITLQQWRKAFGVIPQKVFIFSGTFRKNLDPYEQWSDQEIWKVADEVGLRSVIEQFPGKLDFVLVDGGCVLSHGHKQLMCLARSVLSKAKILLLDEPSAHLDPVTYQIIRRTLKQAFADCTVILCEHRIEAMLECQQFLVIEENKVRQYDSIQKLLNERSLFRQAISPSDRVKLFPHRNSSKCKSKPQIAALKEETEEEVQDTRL

| Structure (SMILES) | pEC50 [1] | pEC50 [2] | Maximum % activity (with co-corrector) (with co-corrector (2 μM)) | Emax (without co-corrector) [%] | pEC50 [3] | pEC50 [4] | Maximum % activity (with co-corrector) [5] | Emax (CSE-HRP, without co-corrector) [%] | Emax [6] [%] | Maximum % activity (with co-corrector) [7] |
| --- | --- | --- | --- | --- | --- | --- | --- | --- | --- | --- |
| COc1ccc(C(C)(C)C)cc1CN[C@H]1[C@H](C(C)(C)C)[C@@H](C(=O)O)N(C(=O)[C@H]2OCC[C@H]2C(C)C)[C@H]1c1ccccc1 (relative stereo) [Example 23, (2S,3S,4S,5S)-3-tert-butyl-4-{[(5-tert-butyl-2-methoxyphenyl)methyl]amino}-5-phenyl-1-[(2S*,3S*)-3-(propan-2-yl)oxolane-2-carbonyl]pyrrolidine-2-carboxylic acid] | 5.00 to 6.00 | > 6.00 | +++ (≥350) | > 200 | – | – | – | – | – | – |
| COc1cc(CN[C@H]2[C@H](C(C)(C)C)[C@@H](C(=O)O)N(C(=O)C3CCCCC3)[C@H]2c2ccccc2)c(F)cc1Cl [II-104] | – | – | – | – | 5.00 to 6.00 | 5.00 to 6.00 | ++ (≥150 and <350) | < 100 | – | – |
| COc1cc(C(F)(F)F)ccc1CN[C@H]1[C@H](C(C)(C)C)[C@@H](C(=O)O)N(C(=O)C(C)c2ccccc2)[C@H]1c1ccccc1 (relative stereo) [Example 11, (2S,3S,4S,5S)-3-tert-butyl-4-({[2-methoxy-4-(trifluoromethyl)phenyl]methyl}amino)-5-phenyl-1-[(2R*)-2-phenylpropanoyl]pyrrolidine-2-carboxylic acid] | 5.00 to 6.00 | 5.00 to 6.00 | +++ (≥350) | 100 to 200 | – | – | – | – | – | – |
| COc1ccc(C(C)(C)C)cc1CN[C@H]1[C@H](C(C)(C)OC)[C@@H](C(=O)O)N(C(=O)C2CCCCC2)[C@H]1c1ccccc1 [Example I-61] | 5.00 to 6.00 | > 6.00 | +++ (≥350) | > 200 | – | – | – | – | – | – |
| COc1ncc(C2=CCOC2)cc1CN[C@H]1[C@H](C(C)(C)C)[C@@H](C(=O)O)N(C(=O)C2CCCCC2)[C@H]1c1ccccc1 [II-350] | 5.00 to 6.00 | 5.00 to 6.00 | – | – | – | – | – | – | 100 to 200 | +++ (≥350) |
| C#CCOC(=O)N1[C@H](C(=O)O)[C@@H](C(C)(C)C)[C@H](NCc2cc(C(C)(C)C)ccc2OC)[C@@H]1c1ccccc1 [II-384] | 5.00 to 6.00 | 5.00 to 6.00 | – | – | – | – | – | – | > 200 | +++ (≥350) |
| COc1nc(C(C)(C)C)ncc1CN[C@H]1[C@H](C(C)(C)C)[C@@H](C(=O)O)N(C(=O)C2CCCC(F)(F)C2)[C@H]1c1ccccc1 (relative stereo) [II-477] | > 6.00 | 5.00 to 6.00 | – | – | – | – | – | – | 100 to 200 | +++ (≥350) |
| COc1ncc(C2CCCC2)cc1CN[C@H]1[C@H](C(C)(C)OC)[C@@H](C(=O)O)N(C(=O)C2CCCCC2)[C@H]1c1ccccc1 [Example I-116] | > 6.00 | > 6.00 | +++ (≥350) | 100 to 200 | – | – | – | – | – | – |
| COc1ccc([Si](C)(C)C)cc1CN[C@H]1[C@H](C(C)(C)C)[C@@H](C(=O)O)N(C(=O)[C@H]2CCCC(F)(F)C2)[C@H]1c1ccccc1 [II-441] | > 6.00 | > 6.00 | – | – | – | – | – | – | – | – |
| COc1ccc(C(C)(C)C)cc1CN[C@H]1[C@H](C(C)(C)C)[C@@H](C(=O)O)N(C(=O)OC(C)C)[C@H]1c1ccccc1F [Example I-221] | 5.00 to 6.00 | 5.00 to 6.00 | +++ (≥350) | > 200 | – | – | – | – | – | – |
| COc1ccc(C(C)(C)C)cc1CN[C@H]1[C@H](C(C)(C)C)[C@@H](C(=O)O)N(C(=O)[C@H]2C[C@H](CCC#N)C[C@H]2C)[C@H]1c1ccccc1 [II-173] | – | – | – | – | 5.00 to 6.00 | 5.00 to 6.00 | +++ (≥350) | > 200 | – | – |
| COc1cc(C(F)(F)F)ccc1CN[C@H]1[C@H](C(C)(C)C)[C@@H](C(=O)O)N(C(=O)C2CCCCC2)[C@H]1c1cccnc1OC [Example I-39] | 5.00 to 6.00 | > 6.00 | +++ (≥350) | 100 to 200 | – | – | – | – | – | – |
| COc1ccc(C(C)(C)C)cc1CN[C@H]1[C@H](C(C)(C)C)[C@@H](C(=O)O)N(C(=O)C2CCC(F)(F)C2)[C@H]1c1ccccc1 (some centres unmarked) [II-334] | 5.00 to 6.00 | 5.00 to 6.00 | – | – | – | – | – | – | > 200 | +++ (≥350) |
| COc1ncc(CC2CCCCC2)cc1CN[C@H]1[C@H](C(C)(C)OC)[C@@H](C(=O)O)N(C(=O)C2CCCCC2)[C@H]1c1ccccc1 [II-253] | – | – | – | – | > 6.00 | > 6.00 | +++ (≥350) | 100 to 200 | – | – |
| COc1ccc(C(C)(C)C)cc1CN[C@H]1[C@H](C(C)(C)C)[C@@H](C(=O)O)N(C(=O)CC2CCCO2)[C@H]1c1ccccc1 (some centres unmarked) [II-235] | – | – | – | – | 5.00 to 6.00 | 5.00 to 6.00 | +++ (≥350) | > 200 | – | – |
| COc1cc(Cl)ccc1CN[C@@H]1[C@@H](C(C)(C)C)[C@H](C(=O)O)N(C(=O)C2CCOC(C)(C)C2)[C@@H]1c1ccccc1N(C)C (mixture of isomers) [II-26] | – | – | – | – | 5.00 to 6.00 | 5.00 to 6.00 | +++ (≥350) | > 200 | – | – |
| COc1cc(C(F)(F)F)ccc1CN[C@H]1[C@H](C(C)(C)C)[C@@H](C(=O)O)N(C(=O)[C@@H](OC)c2ccccc2)[C@H]1c1ccccc1 [II-65] | – | – | – | – | 5.00 to 6.00 | 5.00 to 6.00 | +++ (≥350) | 100 to 200 | – | – |
| COc1ccc(C(C)(C)C)cc1CN[C@@H]1[C@@H](C(C)(C)C)[C@H](C(=O)O)N(C(=O)C2CCCCC2)[C@@H]1c1ccccc1 (racemic) [III-107] | > 6.00 | > 6.00 | +++ (≥350) | – | – | – | – | – | > 200 | – |
| COc1ccc(C(C)(C)C)cc1CN[C@H]1[C@H](C(C)(C)C)[C@@H](C(=O)O)N(C(=O)[C@H](C)c2ccccc2)[C@H]1c1cccnc1N(C)C [Example I-233] | 5.00 to 6.00 | 5.00 to 6.00 | +++ (≥350) | 100 to 200 | – | – | – | – | – | – |
| COc1cc(CN[C@H]2[C@H](C(C)(C)C)[C@@H](C(=O)O)N(C(=O)C3CCCCC3)[C@H]2c2ccccc2)ccc1F [II-112] | – | – | – | – | < 5.00 | 5.00 to 6.00 | ++ (≥150 and <350) | < 100 | – | – |
| COc1ccc(C(C)(C)C)cc1CN[C@H]1[C@H](C(C)(C)C)[C@@H](C(=O)O)N(C(=O)[C@H](C)OC)[C@H]1c1ccccc1 [II-308] | – | – | – | – | 5.00 to 6.00 | 5.00 to 6.00 | +++ (≥350) | 100 to 200 | – | – |
| COc1cccc([C@@H]2[C@H](NCc3ccccc3OC(F)F)[C@@H](C(C)(C)C)[C@H](C(=O)O)N2C(=O)C2CCCCC2)n1 (racemic) [Example I-16] | 5.00 to 6.00 | 5.00 to 6.00 | +++ (≥350) | < 100 | – | – | – | – | – | – |
| COc1ncc(C(C)(C)C)cc1CN[C@H]1[C@H](C(C)(C)C)[C@@H](C(=O)O)N(C(=O)C2CCCCC2)[C@H]1c1ccc(F)cc1 [Example I-130] | > 6.00 | > 6.00 | +++ (≥350) | > 200 | – | – | – | – | – | – |
| COc1ccc(C2=CCOC2)cc1CN[C@H]1[C@H](C(C)(C)C)[C@@H](C(=O)O)N(C(=O)C2CCCCC2)[C@H]1c1ccccc1 [II-293] | – | – | – | – | 5.00 to 6.00 | 5.00 to 6.00 | +++ (≥350) | 100 to 200 | – | – |
| COc1ccc(OC(F)(F)F)cc1CN[C@H]1[C@H](C(C)(C)C)[C@@H](C(=O)O)N(C(=O)C2CCCCC2)[C@H]1c1ccccc1 [II-190] | – | – | – | – | 5.00 to 6.00 | > 6.00 | +++ (≥350) | > 200 | – | – |
